Values of other authors in article PMC9587990, “Molecular basis for isoform-selective inhibition of presenilin-1 by MRK-560” (Nature Communications, 2022).

Tested on: PS1-complex over PS2
Conditions: cited from earlier work

Structure (SMILES) | reported isoform selectivity
C[C@H](c1ccc(F)cc1CCCC(=O)O)N(c1cc(F)ccc1F)S(=O)(=O)c1ccc(Cl)cc1 [BMS299897] | PS1 selectivity
O=C1NCCCCC1N(Cc1ccc(Br)cc1)S(=O)(=O)c1ccc(Cl)cc1 (centres unmarked) [ELN318463] | PS1 selectivity
